This passage reports Km results from article PMC4648443, “Protein evolution analysis of S-hydroxynitrile lyase by complete sequence design utilizing the INTMSAlign software” (Scientific Reports, 2015).

Where two headings read alike, the source gives them in different places.

The test system of assay [1] is T1, HNL30.
T1 construct: pET28b (NdeI/XhoI), E. coli BL21(DE3), Ni-Sepharose and gel filtration
Nature of the assay: benzaldehyde formation at […] nm. Type of assay: biochemical, synthetic construct. To be noted: 100 mM citrate pH 5.5, 30 °C.

The subject of assay [2] is T2, HNL54.
T2 construct: synthetic gene in pET28b (NdeI/XhoI), E. coli BL21(DE3), Ni-Sepharose and gel filtration
Description: benzaldehyde formation at […] nm. The class given is biochemical, synthetic construct. To be noted: 100 mM citrate pH 5.5, 30 °C.

`N#CC(O)c1ccccc1` (racemic) [rac-Man]: the Km in assay [1] (read-out: Km /) amounted to 800 ± 100 µM; in assay [2] (read-out: Km /), 3200 ± 300 µM.
On to `N#C[C@H](O)c1ccccc1` [(R)-Man], for which the Km came out at 5000 µM in assay [1] (read-out: HNL30 / Km) and 370 µM in assay [2] (read-out: HNL54 / Km).
For `N#C[C@@H](O)c1ccccc1` [(S)-Man] the same measures were 400 µM and 610 µM.
